Test results reported in PubChem BioAssay (NCI).
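All cell lines were grown in 96-well plates and treated with compound for 48 hours. At the GI50, growth is halved. The concentration for full growth arrest is given as TGI.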

How the values were obtained:
Experiment in all cases: inhibition of tumour cell growth, NCI panel, 48 h
HCT-116 colon = test system: HCT-116 colon
SNB-75 CNS = test system: SNB-75 CNS
A549 NSCLC = test system: A549 NSCLC
SF-295 CNS = test system: SF-295 CNS
K-562 leukemia = test system: K-562 leukemia
TK-10 renal = test system: TK-10 renal
HOP-62 NSCLC = test system: HOP-62 NSCLC
NCI-H460 lung = test system: NCI-H460 lung
OVCAR-4 ovarian = test system: OVCAR-4 ovarian
SF-539 CNS = test system: SF-539 CNS

Row | SMILES | TGI (HCT-116 colon) [µM] | TGI (SNB-75 CNS) [µM] | TGI (A549 NSCLC) [µM] | TGI (SF-295 CNS) [µM] | TGI (K-562 leukemia) [µM] | TGI (TK-10 renal) [µM] | TGI (HOP-62 NSCLC) [µM] | TGI (NCI-H460 lung) [µM] | TGI (OVCAR-4 ovarian) [µM] | GI50 (HCT-116 colon) [µM] | GI50 (SNB-75 CNS) [µM] | GI50 (A549 NSCLC) [µM] | GI50 (SF-295 CNS) [µM] | GI50 (K-562 leukemia) [µM] | GI50 (TK-10 renal) [µM] | GI50 (HOP-62 NSCLC) [µM] | GI50 (NCI-H460 lung) [µM] | GI50 (OVCAR-4 ovarian) [µM] | GI50 (SF-539 CNS) [µM] | TGI (SF-539 CNS) [µM]
1 | COC(=O)c1ccccc1N(C(=O)c1ccccc1)c1ccccc1C | > 100 | > 100 | > 100 | > 100 | > 100 | > 100 | > 100 | > 100 | > 100 |  |  |  |  |  |  |  |  |  |  | 
2 | CSc1c(C2=C(c3cn(C)c4ccccc34)C(=O)NC2=O)c2ccccc2n1C | > 25 | > 12.6 | > 25 | > 25 | > 25 | > 25 | > 25 | > 25 | > 22.5 | 1.04 | 0.728 | 1.14 | 0.671 | 0.665 | 0.606 | 1.38 | 0.832 | 1.2 |  | 
3 | COc1cc2c(c(OC)c1OC)-c1ccc(O)cc1[C@@H](NC(C)=O)CC2 | > 100 |  | > 100 | > 100 | > 100 | > 100 | > 100 | > 34.9 | > 100 | 0.0395 |  | 0.0666 | 0.0341 | 0.0376 | 0.0406 | 0.051 | 0.0363 | 0.0706 | 0.0261 | 
4 | COc1cc(C2CC(c3cccc(Nc4ccnc5cc(Cl)ccc45)c3)=NN2c2ccc(Cl)cc2)cc(OC)c1OC (stereo not given) | > 100 | > 100 | > 100 | 33.8 | > 100 | 19.1 | 22.7 | > 100 |  | 1.68 | 2.22 | 2.72 | 1.71 | 0.755 | 3.27 | 1.39 | 0.772 |  | 1.71 | 4.87
5 | CCCCCCCCCCCCCCCC1=NCCN1 |  | 3.44 | 4 | 3.95 |  | 3.39 |  |  | 6.89 |  | 1.58 | 2.06 | 1.97 |  | 1.84 |  |  | 2.38 | 1.89 | 3.6
6 | CC(C)N(O)C(=N)c1ccccc1 | > 100 | > 100 | > 100 | > 100 |  | > 100 | > 100 | > 100 | > 100 |  |  |  |  |  |  |  |  |  |  | > 100
7 | Cc1ccc(-c2nc3ccccc3c(=O)n2NCC2(O)OCC(O)C(O)C2O)cc1 (stereo not given) | > 100 | > 100 | > 100 | > 100 | > 100 |  |  | > 100 | > 100 |  |  |  |  |  |  |  |  |  |  | > 100
8 | O=C1C(Cl)=C(Nc2ccc(Nc3ccccc3)c(NC3=C(Cl)C(=O)c4ccccc4C3=O)c2)C(=O)c2ccccc21 |  | 6.97 | > 100 | 19.9 |  | 4.5 | > 100 | 13 |  |  | 2.3 | 8.25 | 3.79 |  | 2.62 | 2.71 | 3.35 |  | 3.43 | 24.2
9 | C=C(CO)CC(O)c1cc(OC)ccc1OC (stereo not given) |  | > 100 | > 100 | > 100 | > 100 | > 100 | > 100 | > 100 | > 100 |  |  |  |  |  |  |  |  |  |  | > 100
10 | Cc1ccc2oc(=O)cc(/C(=C3/C=CC=N3)c3ccc[nH]3)c2c1 | 1.79 | 4.46 | 10.9 | 0.667 |  | 4.87 | 5.53 | 3.52 | 9.56 | 0.375 | 0.335 | 0.59 | 0.215 |  | 0.47 | 0.533 | 0.353 | 1.58 | 0.226 | 0.67
11 | C[C@]12CCC(=O)C(OC(=O)c3ccc([N+](=O)[O-])cc3)=C1CCC2=O | > 100 | > 100 | > 100 | > 100 |  | > 100 | > 100 | > 100 | > 100 |  |  |  |  |  |  |  |  |  |  | > 100
12 | COc1cc(OC)c(C(=O)c2cccs2)cc1N |  | > 100 | > 100 | > 100 | > 100 | > 100 | > 100 | > 100 | > 100 |  |  |  |  |  |  |  |  |  |  | > 100
13 | CCN1CCC(Nc2ccnc3cc(Cl)ccc23)CC1 | > 100 | 74.8 | > 100 | 53.6 | > 100 |  | > 100 | > 100 | > 100 | 8.82 | 18.4 | 33.9 | 18 | 4.83 |  | 21.9 | 28.7 | 55.7 | 15.8 | 36
14 | N#Cc1c(NCc2ccccc2)nc(NCc2ccccc2)c(C#N)c1-c1ccc(O)cc1 | 34.1 | > 100 | > 100 | > 100 |  | 69.4 | 93 | 53.6 | > 100 | 14.5 | 67.8 | 34.1 | 27.1 |  | 22.6 | 17.3 | 21.2 | 27.7 | 13.1 | 37.4
15 | COc1cc(/C=C(\NC(=O)c2ccccc2)c2nc3ccc4c(c3[nH]2)C(=O)c2ccccc2C4=O)cc(OC)c1OC | > 100 | 75.3 | > 100 | > 100 | > 100 | > 100 | > 100 |  | > 100 |  |  |  |  |  |  |  |  |  |  | > 100
16 | N#CC(C(=O)C(=O)Nc1ccccc1)c1ccccc1 (stereo not given) | > 100 | > 100 | > 100 | > 100 | > 100 | > 100 |  |  |  |  |  |  |  |  |  |  |  |  |  | > 100
17 | CCCCN1CCCC[C@@H]1C(=O)N[C@H](C(=O)N(C)[C@H](C[C@@H](OC(C)=O)c1nc(C(=O)NC2CCC(C(=O)OC)CC2)cs1)C(C)C)C(C)C (stereo not given in full) | > 25 |  | > 25 | 8.06 | > 25 | > 25 | > 25 | > 25 | > 25 | 1 |  | 1.68 | 1.01 | 0.691 | > 25 | 2.35 | 1.08 | 3.95 | 1.49 | 11.8
